Structures can show the parent of a compound that is named as a salt.
Test system: HEP3B cells
Test: Erythropoietin production by HEP3B cells with reduced erythropoietin production ability (ELISA of culture supernatant)
Type: cell-based, human
Settings: 1% oxygen, 24 h
Text: Erythropoietin production ability of erythropoietin producer cells were reduced by culturing the erythropoietin producer cells under hypoxic condition to allow artificial production of erythropoietin, and then adding inflammatory cytokine or uremia toxin.
TNF-α was employed as the inflammatory cytokine. In addition, indoxyl sulfate was employed as the uremic toxin. Indoxyl sulfate is thought to be the causative substance of uremic toxin, and is also the most commonly used uremia-related marker. Indoxyl sulfate in vivo is also a substance where tryptophan-derived indoles are sulfated and synthesized in the liver. Accordingly, a state of reduced erythropoietin production by addition of inflammatory cytokine or uremic toxin is a state of mimicked renal anemia.
In this Example, HEP3B cells which are liver cancer cells that produce erythropoietin of Groups I to VI with different culture conditions (from ATCC) were used. First, as a culturing step common to all 6 groups, about 300,000 HEP3B cells per well of a 12-well plate were cultured. The culture condition employed was culturing in RPMI1640 medium supplemented with 10% FCS/PC-SM at 37° C. under 20% oxygen condition. After 24 hours of culture, they were divided into the following culture conditions I to VI, and further cultured for 24 hours. Human recombinant TNF-a (rhTNF-a; Roche) was employed as TNF-α in the following.
After culturing for 24 hours under the above culture conditions I to VI, the culture supernatant was separated, and the concentration of erythropoietin contained in the culture supernatant was measured with “Human Erythropoietin ELISA kit” (from Bender MedSystems).

## Cl.NCC(=O)CCC(=O)O [aminolevulinic acid hydrochloride, 5-aminolevulinic acid hydrochloride]
1 mM indoxyl sulfate, 0.3 μM 5-aminolevulinic acid hydrochloride with 0.15 μM sodium ferrous citrate
  erythropoietin concentration in culture supernatant, Group (VI) vs Group (V): significantly high erythropoietin concentration value compared to Group (V)
220 U/ml TNF-α, 0.3 μM 5-aminolevulinic acid hydrochloride with 0.15 μM sodium ferrous citrate
  erythropoietin concentration in culture supernatant, Group (IV) vs Group (III): significantly high erythropoietin concentration value compared to Group (III)

## O=S(=O)(O)Oc1c[nH]c2ccccc12 [indoxyl sulfate]
1 mM indoxyl sulfate
  erythropoietin concentration in culture supernatant, Group (V) vs Group (I): decrease in the concentration of erythropoietin was observed

## TNF-α
220 U/ml TNF-α
  erythropoietin concentration in culture supernatant, Group (III) vs Group (I): decrease in the concentration of erythropoietin was observed

From patent US9469598B2, “Erythropoietin production-promoting agent” (SBI Pharmaceuticals Co., Ltd., priority 2011, dated 2016)
